Laboratory results reported in US20050196751A1, “Adenoviral vector-mediated delivery of modified steroid hormone receptors and related products and methods” (priority 1998, published 2005).

System: C57BL/6 mice
Assay: Serum hGH in adenoviral infected mice after RU486 (radio-immunoassay)
Format: in vivo, mouse
Protocol: RU486 (250 μg/kg) was administered every second day after infection for a period of two weeks as indicated by arrows. Mice were bled at different time points and serum hGH was analyzed by radio-immunoassay. Mice 1 and 2 received intraperitoneal injections (IP) of RU486; Mouse 3 (−RU486) received sesame oil. hGH serum levels are shown as μg/ml.
Mice infected for two weeks with the regulatable adenoviral construct hGHGLp65 were induced with […] RU486 as indicated by an arrow. 3, 6, 12, 24, 48, 72, 120 and 192 hours after RU486 administration blood was drawn from the mice, and hGH was measured in the serum by a radio-immunoassay. hGH serum levels of individual mice are shown in μg/ml.
Mice infected with hGH-GLp65 or hGH-H-GLp65 adenoviral vectors were induced 3 times with 250 μg/kg RU486 over a time period of 50 Days. hGH was measured prior to, 12 hours after, and 7 days after RU486 administration. […] Serum levels of hGH are shown in μg/ml.
hGH analysis in adenoviral infected mice. […] Serum hGH levels were detected using a radio-immunoassay. […]
To investigate the kinetics of the regulatory system, mice received a single RU486 administration two weeks after the initial infection and serum hGH levels were measured at different time intervals. […]

Which “doses of RU486 needed for induction” value (induction of transgene in the regulatory system) does the source give for `CC#C[C@]1(O)CC[C@H]2[C@@H]3CCC4=CC(=O)CCC4=C3[C@@H](c3ccc(N(C)C)cc3)C[C@@]21C` [RU486, mifepristone] here?
Its value is 0.1 to 0.5 mg/kg.

And the “hGH induction with oral versus I.P. RU486” value (oral RU486 administration compared with intraperitoneal)?
Its value is “comparable”.
